Measurements published in US11286268B1, “EIF4E-inhibiting compounds and methods” (EFFECTOR THERAPEUTICS, INC., priority 2019, dated 2022).
Like-named read-outs stand apart in the source and are kept apart here.

Biological target: recombinant eIF4E (Homo sapiens (Human), UniProt P06730)
Test: Fluorescence polarization competition assay for eIF4E binding potency
Procedure, shortened: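 Protein and fluorescent cap-analog probe (EDA-m7GDP-ATTO-550) were mixed first for 5 min, after which serially diluted compound was added to final 75 nM eIF4E, 20 nM probe, 1% DMSO. Reactions equilibrated 30 min at room temperature before polarization was measured.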

[1] = inhibition of eIF4E/EDA-m7GDP-ATTO-550 binding, calculated IC50 values, Table 4B, read-out: IC50
[2] = fluorescence polarization competition, 75 nM recombinant eIF4E, 20 nM EDA-m7GDP-ATTO-550, IC50 class, read-out: elF4E FP
[3] = inhibition of eIF4E/EDA-m7GDP-ATTO-550 binding by 50%, Table 4B calculated values, read-out: IC50

Chain of recombinant eIF4E (P06730 whole entry): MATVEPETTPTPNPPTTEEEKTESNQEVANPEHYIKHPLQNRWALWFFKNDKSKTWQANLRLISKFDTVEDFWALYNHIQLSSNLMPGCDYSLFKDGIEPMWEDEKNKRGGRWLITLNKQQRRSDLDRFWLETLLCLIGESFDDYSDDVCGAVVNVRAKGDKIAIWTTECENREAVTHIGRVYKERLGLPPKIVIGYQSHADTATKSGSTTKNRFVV

## Cc1nc2cnc(C#CCN(C)CCF)c(C#N)c2c(=O)n1CCOc1ccc(Cl)cc1-c1ccnc2c(C(=O)O)csc12 [compound 1326]
[1]
  IC50: 0.0128 µM

## Cc1cc(-c2cc(Cl)ccc2OCCn2c(C)nc3c(C(F)(F)F)ncc(C#N)c3c2=O)c2scc(C(=O)O)c2n1 [compound 340]
[2]
  IC50: < 0.05 µM
[3]
  IC50: 0.00501 µM

## Cc1cc(-c2cc(Cl)ccc2OCCn2c(C)nc3cc(C(F)(F)F)c(N4CCN(C)CC4)c(C#N)c3c2=O)cc(C(=O)O)n1 [compound 1222]
[2]
  IC50: < 0.05 µM
[1]
  IC50: 0.00302 µM

## Cc1nc2cnc(N(C)C3CCN(C4CC(F)(F)C4)CC3)c(C#N)c2c(=O)n1CC#Cc1ccc(Cl)cc1-c1ccnc2c(C(=O)NS(=O)(=O)c3ccncc3)csc12 [compound 1111]
[2]
  IC50: < 0.05 µM
[3]
  IC50: 0.00571 µM

## Cc1nc2cnc(N(C)[C@@H]3C[C@@H]4CN(CC(F)F)C[C@@H]4C3)c(C#N)c2c(=O)n1CC#Cc1ccc(Cl)cc1-c1ccnc2c(C(=O)O)csc12 [compound 1531]
[1]
  IC50: 0.0134 µM

## Cc1nc2cnc(N(C)C3CCN(C(C)(C)C(C)(F)F)CC3)c(C#N)c2c(=O)n1CC#Cc1ccc(Cl)cc1-c1ccnc2c(C(=O)O)csc12 [compound 1506]
[1]
  IC50: 0.0274 µM

## Cc1nc2cc(C(F)(F)F)c(N3CCN(C)CC3)c(C#N)c2c(=O)n1CCOc1ccc(Cl)cc1-c1ccnc2c(C(=O)NS(C)(=O)=O)csc12 [compound 1151]
[2]
  IC50: < 0.05 µM
[3]
  IC50: 0.019 µM

## Cc1cc(C#N)c2c(=O)n(CCOc3ccc(Cl)cc3-c3ccnc4c(C(=O)O)csc34)c(C)nc2c1 [compound 573]
[2]
  IC50: 0.05 to 1 µM
[3]
  IC50: 0.0547 µM

## Cc1nc2cc(C(F)(F)F)cc(C#N)c2c(=O)n1CCOc1ccc(Cl)cc1-c1ccnc2c(C(C)(C)O)csc12 [compound 352]
[2]
  IC50: > 1 µM
[3]
  IC50: 1.27 µM

## Cc1nc2cnc(N(C)C3CCN(CC(F)F)CC3)c(C#N)c2c(=O)n1C(C)C#Cc1ccc(Cl)cc1-c1ccnc2c(C(=O)O)csc12 (stereo not shown) [compound 1557]
[1]
  IC50: 0.00677 µM

## CSc1c(-c2cc(Cl)ccc2OCCn2c(C)nc3cnc(C4CC4)c(C#N)c3c2=O)ccnc1C(=O)O [compound 757]
[2]
  IC50: 0.05 to 1 µM
[3]
  IC50: 0.137 µM

## Cc1nc2cncc(C#N)c2c(=O)n1CCOc1ccc(Cl)cc1-c1cccc(P(=O)(O)O)c1 [150FA]
[3]
  IC50: 0.0631 µM

## Cn1cc(-c2cc(Cl)ccc2OCCn2cnc3cnc(C#N)cc3c2=O)cc1C(=O)O [compound 82]
[2]
  IC50: > 1 µM
[3]
  IC50: 1.66 µM

## Cc1cc(-c2cc(Cl)ccc2OCCn2c(C)nc3cnc(C4CC4)c(C#N)c3c2=O)c2scc(C(=O)O)c2c1C [compound 771]
[2]
  IC50: < 0.05 µM
[3]
  IC50: 0.0128 µM

## Cc1nc2cc(Cl)c(Cl)c(C#N)c2c(=O)n1CCOc1ccc(C#N)cc1-c1ccnc2c(C(=O)O)csc12 [compound 290]
[2]
  IC50: < 0.05 µM
[3]
  IC50: 0.0427 µM

## N#Cc1cc(C#N)c2c(=O)n(CCOc3ccc(Cl)cc3-c3cccc(C(=O)O)c3)cnc2c1 [compound 1989]
[1]
  IC50: 0.089 µM

## Cc1nc2cnc(N(C)C3CCN(CC(F)(F)C4(O)CCC4)CC3)c(C#N)c2c(=O)n1CC#Cc1ccc(Cl)cc1-c1ccnc2c(C(=O)O)csc12 [compound 1598]
[1]
  IC50: 0.0375 µM

## Cc1cc(-c2cc(Cl)ccc2OCCn2c(C)nc3c(C)nc(-c4ccc(F)cc4)c(C#N)c3c2=O)c2scc(C(=O)O)c2n1 [compound 474]
[2]
  IC50: < 0.05 µM
[3]
  IC50: 0.0135 µM

## COC(=O)c1csc2c(-c3cc(Cl)ccc3OCCn3c(C)nc4cc(C(F)(F)F)c(CN(C)C)c(C#N)c4c3=O)ccnc12 [compound 1907]
[1]
  IC50: 0.405 µM

## O=C(O)c1cccc(-c2cc(Cl)ccc2OCCn2c(C(F)F)nc3cncc(Br)c3c2=O)c1 [compound 2010]
[1]
  IC50: 1.19 µM

## Cc1cc(-c2cc(Cl)ccc2OCCn2c(C)nc3cnc(N4CC(OC(F)F)C4)c(C#N)c3c2=O)c2scc(C(=O)O)c2n1 [compound 1041]
[2]
  IC50: < 0.05 µM
[3]
  IC50: 0.00621 µM

## Cc1nc2cncc(SCCN(C)C)c2c(=O)n1CCOc1ccc(Cl)cc1-c1ccnc2c(C(=O)O)csc12 [compound 1331]
[1]
  IC50: 0.0918 µM

## C#Cc1cc2nccc(-c3cc(Cl)ccc3OCCn3c(C)nc4cc(C(F)(F)F)c(N5CCN(C)CC5)c(C#N)c4c3=O)c2s1 [compound 1244]
[2]
  IC50: < 0.05 µM
[1]
  IC50: 0.0194 µM

## Cc1nc2cnc(N(C)C3CCN(CC(C)(C)F)CC3)c(C#N)c2c(=O)n1CC#Cc1ccc(Cl)cc1-c1ccnc2c(C(=O)O)csc12 [compound 1142]
[2]
  IC50: < 0.05 µM
[3]
  IC50: 0.013 µM

## Cc1nc2cc(CCN(C)C)cc(C#N)c2c(=O)n1CCOc1ccc(Cl)cc1-c1ccnc2c(C(=O)O)csc12 [compound 513]
[2]
  IC50: < 0.05 µM
[3]
  IC50: 0.0116 µM

## Cc1nc2cnc(N(C)C3CCN([C@H]4C[C@H](F)C4)CC3)c(C#N)c2c(=O)n1CC#Cc1ccc(Cl)cc1-c1ccnc2c(C(=O)NS(=O)(=O)c3cccnc3)csc12 [compound 1794]
[1]
  IC50: 0.00928 µM

## Cc1cc(-c2cc(Cl)ccc2OCCn2c(C)nc3c(C)nc(-c4c(F)cccc4F)c(C#N)c3c2=O)c2scc(C(=O)O)c2n1 [compound 1622]
[1]
  IC50: 0.0173 µM

## CCN(c1ncc2nc(C)n(CC#Cc3ccc(Cl)cc3-c3ccnc4c(C(=O)O)csc34)c(=O)c2c1C#N)C1CCN(C2CC(F)(F)C2)CC1 [compound 1184]
[2]
  IC50: < 0.05 µM
[3]
  IC50: 0.00932 µM

## Cc1nc2cnc(N3CCN(C4(CCF)CC4)CC3)c(C#N)c2c(=O)n1CCOc1ccc(Cl)cc1-c1ccnc2c(C(=O)O)csc12 [compound 1425]
[1]
  IC50: 0.013 µM

## Cc1cc(-c2cc(Cl)ccc2OCCn2c(C)nc3c(C#N)nc(C4CC4)c(C)c3c2=O)c2scc(C(=O)O)c2n1 [compound 1964]
[1]
  IC50: 0.0498 µM

## Cc1nc2cc(C(F)(F)F)cc(C#N)c2c(=O)n1CCOc1ccc(Cl)cc1-c1cc(C(F)F)nc2c(C(=O)O)csc12 [compound 563]
[2]
  IC50: < 0.05 µM
[3]
  IC50: 0.0144 µM

## Cc1nc2cnc(N(C)C3CCN(C4CC4)CC3)c(C#N)c2c(=O)n1CCOc1ccc(Cl)cc1-c1ccnc2c(C(=O)O)csc12 [compound 1319]
[1]
  IC50: 0.0136 µM

## Cc1nc2cnc(N3CCN(C(C)(C)CC(F)(F)F)CC3)c(C#N)c2c(=O)n1CCOc1ccc(Cl)cc1-c1ccnc2c(C(=O)O)csc12 [compound 845]
[2]
  IC50: < 0.05 µM
[3]
  IC50: 0.0127 µM

## Cc1nc2cnc(N(C)C3CCN([C@H]4C[C@H](OC(F)F)C4)CC3)c(C#N)c2c(=O)n1CC#Cc1ccc(Cl)cc1-c1ccnc2c(C(=O)NS(=O)(=O)c3cccnc3)csc12 [compound 1765]
[1]
  IC50: 0.0123 µM

## Cc1nc2cc(C(F)(F)F)c(N3CCN(C)CC3)c(C#N)c2c(=O)n1CCOc1ccc(Cl)cc1-c1ccnc2ccsc12 [compound 705]
[2]
  IC50: < 0.05 µM
[3]
  IC50: 0.0191 µM

## Cc1nc2cnc(N(C)C3CCN(CC(F)(F)F)CC3)c(C#N)c2c(=O)n1CC#Cc1ccc(Cl)cc1-c1ccnc2c(C(=O)NS(=O)(=O)c3ccccc3)csc12 [compound 1548]
[1]
  IC50: 0.0362 µM

## Cc1nc2cnc(-c3ccc(CN(C)C)nc3)c(C#N)c2c(=O)n1CCOc1ccc(Cl)cc1-c1ccnc2c(C(=O)O)csc12 [compound 1325]
[1]
  IC50: 0.0271 µM

## Cc1nc2cnc(N(C)C3CCN(C4CC(F)(F)C4)CC3)c(C#N)c2c(=O)n1CC#Cc1ccc(Cl)cc1-c1ccnc2c(C(=O)O)csc12 [compound 1165]
[2]
  IC50: < 0.05 µM
[3]
  IC50: 0.0223 µM

## Cc1cc(-c2cc(Cl)ccc2OCCn2c(C)nc3cc(C(F)(F)F)c(N4CC5(CN(C)C5)C4)c(C#N)c3c2=O)c2sc(C)c(C(=O)O)c2n1 [compound 1420]
[1]
  IC50: 0.00633 µM

## N#Cc1cc2c(=O)n(CCOc3ccc(O)cc3-c3cccc(C(=O)O)c3)cnc2cn1 [compound 125]
[2]
  IC50: > 1 µM
[3]
  IC50: > 3 µM

## Cc1cc(-c2cc(Cl)ccc2OCCn2c(C)nc3cnc(-c4ccccc4C(F)(F)F)c(C#N)c3c2=O)c2scc(C(=O)O)c2n1 [compound 950]
[2]
  IC50: < 0.05 µM
[3]
  IC50: 0.0172 µM

## N#Cc1cncc2ncn(CCOc3ccc(Cl)cc3-c3ccc(C(=O)O)c(CCCCC(O)CO)c3)c(=O)c12 (stereo not shown) [compound 184]
[2]
  IC50: 0.05 to 1 µM

## N#Cc1ccc2ncn(CCOc3ccc(Cl)cc3-c3cccc(C(=O)O)c3)c(=O)c2c1C#N [compound 27]
[2]
  IC50: 0.05 to 1 µM
[3]
  IC50: 0.149 µM

## Cc1nc2cc(OC(F)F)c(C(F)(F)F)c(C#N)c2c(=O)n1CCOc1ccc(Cl)cc1-c1ccnc2c(C(=O)O)csc12 [compound 540]
[2]
  IC50: < 0.05 µM
[3]
  IC50: 0.014 µM

## Cc1nc2cnc(N(C)C3CCN(C4COC4)CC3)c(C#N)c2c(=O)n1CC#Cc1ccc(Cl)cc1-c1ccnc2c(C(=O)O)csc12 [compound 1523]
[1]
  IC50: 0.0131 µM

## Cc1nc2cnc(N(C)C3CCN(C4CC(F)(F)C4)CC3)c(C#N)c2c(=O)n1CC#Cc1ccc(Cl)cc1-c1ccnc2c(C(=O)NS(=O)(=O)c3ccccn3)csc12 [compound 1109]
[2]
  IC50: < 0.05 µM
[3]
  IC50: 0.0134 µM

## CCc1nc(C)c2nc(C)n(CCOc3ccc(Cl)cc3-c3cc(C)nc4c(C(=O)O)csc34)c(=O)c2c1C#N [compound 850]
[2]
  IC50: < 0.05 µM
[3]
  IC50: 0.0177 µM

## Cc1cc(-c2cc(Cl)ccc2OCCn2c(C)nc3cc4c(c(C#N)c3c2=O)CCNC4)c2scc(C(=O)O)c2n1 [compound 334]
[2]
  IC50: < 0.05 µM
[3]
  IC50: 0.0104 µM

## Cc1cc(-c2cc(Cl)ccc2OCCn2c(C)nc3cc(C(F)(F)F)c(CCN(C)C)c(C#N)c3c2=O)c2sc(C)c(C(=O)O)c2n1 [compound 1200]
[2]
  IC50: < 0.05 µM
[1]
  IC50: 0.0148 µM

## Cc1cc(-c2cc(Cl)ccc2OCCn2c(C)nc3cnc(-c4cccc(F)c4)c(C#N)c3c2=O)c2scc(C(=O)O)c2n1 [compound 942]
[2]
  IC50: < 0.05 µM
[3]
  IC50: 0.00693 µM

## Cc1nc2cc(C(F)(F)F)c(N3CCN(c4ccccn4)CC3)c(C#N)c2c(=O)n1CCOc1ccc(Cl)cc1-c1cccc(C(=O)O)c1 [compound 379]
[2]
  IC50: < 0.05 µM
[3]
  IC50: 0.0267 µM

## Cc1cc(-c2cc(Cl)ccc2OCCn2c(C)cc3cnc(-c4cc(F)cnc4C)c(C#N)c3c2=O)c2scc(C(=O)O)c2n1 [compound 1001]
[2]
  IC50: < 0.05 µM
[3]
  IC50: 0.0312 µM

## N#Cc1cc(C(F)(F)F)cc2nc(C(F)F)n(CCOc3ccc(Cl)cc3-c3ccnc4c(C(=O)O)csc34)c(=O)c12 [compound 65]
[2]
  IC50: < 0.05 µM
[3]
  IC50: 0.0241 µM
